Data: US20090182035A1, “USE OF A COMBINATION OF OLOPATADINE AND CILOMILAST TO TREAT NON-INFECTIOUS RHINITIS AND ALLERGIC CONJUNCTIVITIS” (Alcon Research, Ltd., priority 2007, published 2009)

Key:
[1] = system: Guinea Pig Model of Passive Conjunctival Anaphylaxis; experiment: Passive conjunctival anaphylaxis, acute phase clinical score of conjunctivitis; assay type: in vivo; conditions: 0.1% topical 20 μL drop 60 min prior to ovalbumin challenge, scored 30 min after challenge; for Clinical Score Mean: total score 0 to 10, groups of six; for Clinical Score % Inhibition: versus vehicle only, * P < 0.05
Description: (§1) Drugs were prepared in standard ophthalmic suspension vehicle and allowed to vortex overnight. Cilomilast and olopatadine were prepared in the same drop by preparing separate 0.2% formulations and then combining them 50:50 to yield a 0.1% concentration of each drug. In groups where cilomilast and olopatadine were given in consecutive drops, olopatadine was applied first followed 5 minutes later by cilomilast. All topical drops were administered as a single 20 μL application. Guinea pigs (male Hartley outbred, 250-300 g) were divided into groups of six. Animals were passively sensitized to ovalbumin by a single subconjunctival injection to the right eye of 10 μL of undiluted anti-ovalbumin guinea pig serum (antiserum). One group was injected with saline only. Twenty-four hours after sensitization all groups were topically challenged with 0.5 mg of ovalbumin in saline to the right eye. Animals were pre-treated with drug or vehicle 60 minutes prior to challenge. Thirty minutes after topical challenge each animal was scored by a masked observer for clinical signs of conjunctivitis, redness/congestion, swelling, and tearing/discharge, with a total score of 0 to 10. Animals were dosed a second time with drug or vehicle 8 hours after challenge. Animals were euthanized 24 hours after challenge and conjunctivae were collected and assayed for eosinophil peroxidase (EPO) activity, an indirect marker of tissue eosinophil concentration. Briefly, tissue samples were weighed frozen, then mechanically homogenized in 50 mM HEPES buffer, pH 6.5, containing 0.5% cetyltrimethylammonium chloride and 6 mM KBr. Homogenates were freeze-thawed three times and sonicated.

[2] = system: eosinophil peroxidase (EPO) activity; experiment: Passive conjunctival anaphylaxis, eosinophil peroxidase (EPO) activity in conjunctivae (allergic inflammation); assay type: in vivo, guinea pig; conditions: 0.1% topical 20 μL drop 60 min prior to and 8 hours after challenge; for EPO Activity % Inhibition: conjunctivae 24 hours after challenge, versus vehicle only, * P < 0.05; for EPO Activity Mean: conjunctivae collected 24 hours after challenge
Description: as §1

Row | SMILES | Clinical Score Mean [1] | Clinical Score % Inhibition [1] | EPO Activity % Inhibition [2] | EPO Activity Mean [2]
1 | COc1ccc([C@]2(C#N)CC[C@@H](C(=O)O)CC2)cc1OC1CCCC1 [Cilomilast] | 4.2 | 37.5% | 62.8* % | 582.26 ng EPO/mg tisue
2 | CN(C)CC/C=C1/c2ccccc2COc2ccc(CC(=O)O)cc21 [Olopatadine] | 2.2 | 67.5* % | 15.8% | 1320.23 ng EPO/mg tisue
